Numbers after ± are expanded uncertainties.
How the values were obtained:
[1] = refractive index (Na D-line) (dimensionless); details: 298.15 K; 101.33 kPa; Liquid; Standard Abbe refractometry
[2] = 298.15 K; 101.33 kPa; Liquid; Vibrating tube method

refractive index [1]	mass density [2] [kg/m3]	SMILES
1.3725 ± 0.0007	655.12 ± 0.21	CCCCCC [hexane]
1.3413 ± 0.0007	776.55 ± 0.19	CC#N [acetonitrile]
1.4978 ± 0.0007	873.79 ± 0.17	c1ccccc1 [benzene]

From the NIST ThermoML archive (doi:10.1016/j.fluid.2014.01.033)
